Patent publication US10550105B2 (Ribon Therapeutics Inc., priority 2018, dated 2020)
pIC50: −log10 of the molar value.

target: PARP7 (Homo sapiens (Human), UniProt Q7Z3E1); assay: Enzymatic assay for inhibition of PARP7: TR-FRET displacement of biotinylated Probe A from the TIPARP active site; format: binding; conditions: Table A-1
Summary of the method: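 Read-out: 665/615 nm emission ratio (ex 320 nm, 90 μs delay) indexing bound TIPARP–Probe A. Final incubation 30 min, 25° C; compounds in dose response. Curve fit of % inhibition vs concentration; Hill slope floating or fixed at 1 (3-parameter).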

PARP7, sequence (Q7Z3E1 whole entry): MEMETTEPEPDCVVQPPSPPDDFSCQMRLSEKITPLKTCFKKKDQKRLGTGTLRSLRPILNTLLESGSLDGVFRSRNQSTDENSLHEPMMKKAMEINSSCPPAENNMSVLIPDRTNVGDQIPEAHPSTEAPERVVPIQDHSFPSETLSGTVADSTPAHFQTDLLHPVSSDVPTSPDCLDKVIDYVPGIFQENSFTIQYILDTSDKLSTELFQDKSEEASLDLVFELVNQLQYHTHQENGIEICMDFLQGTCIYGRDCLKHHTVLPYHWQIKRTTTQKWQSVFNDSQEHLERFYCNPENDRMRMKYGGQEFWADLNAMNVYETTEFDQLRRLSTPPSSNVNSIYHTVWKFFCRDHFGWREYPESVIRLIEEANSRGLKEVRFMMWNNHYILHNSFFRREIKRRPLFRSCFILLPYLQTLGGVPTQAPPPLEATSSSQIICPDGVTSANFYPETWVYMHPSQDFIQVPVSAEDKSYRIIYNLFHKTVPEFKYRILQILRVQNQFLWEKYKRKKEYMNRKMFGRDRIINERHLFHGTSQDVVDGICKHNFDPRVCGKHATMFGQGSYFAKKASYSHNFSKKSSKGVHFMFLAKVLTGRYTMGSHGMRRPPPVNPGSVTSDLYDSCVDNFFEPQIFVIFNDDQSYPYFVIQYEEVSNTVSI

SMILES | pIC50
C[C@@H](COCCC(=O)N1CCN(c2ncc(C(F)(F)F)s2)CC1)Nc1cn[nH]c(=O)c1C(F)(F)F [Example 622, (S)-5-((1-(3-Oxo-3-(4-(5-(trifluoromethyl)thiazol-2-yl)piperazin-1-yl)propoxy)propan-2-yl)amino)-4-(trifluoromethyl)pyridazin-3(2H)-one] | > 7.00
CC(C)c1c(N2Cc3cccc(OC4CCNCC4)c3C2)cn[nH]c1=O [Example 248, 4-Isopropyl-5-(4-(piperidin-4-yloxy)isoindolin-2-yl)pyridazin-3(2H)-one] | ≤ 6.00
CC(=O)N1CCN(CCOc2cccc3c2CN(c2cn[nH]c(=O)c2Cl)C3)CC1 [Example 230, 5-(4-(2-(4-Acetylpiperazin-1-yl)ethoxy)isoindolin-2-yl)-4-chloropyridazin-3(2H)-one] | 6.00 to 7.00
O=c1[nH]ncc(N2Cc3cc(OCc4cccnc4)cnc3C2)c1C(F)(F)F [Example 336, 5-(3-(Pyridin-3-ylmethoxy)-5,7-dihydro-6H-pyrrolo[3,4-b]pyridin-6-yl)-4-(trifluoromethyl)pyridazin-3(2H)-one] | > 7.00
COc1cccc2c1CN(c1cn[nH]c(=O)c1Cl)C2 [Example 153, 4-Chloro-5-(4-methoxyisoindolin-2-yl)pyridazin-3(2H)-one] | 6.00 to 7.00
O=c1[nH]ncc(N2Cc3cccc(OC4CCNCC4)c3C2)c1Cl [Example 165, 4-Chloro-5-(4-(piperidin-4-yloxy)isoindolin-2-yl)pyridazin-3(2H)-one] | ≤ 6.00
N#Cc1ccc(N2CCN(C(=O)CCOC[C@@H](Nc3cn[nH]c(=O)c3C(F)(F)F)c3ccncc3)CC2)nc1 [Example 527A, 6-(4-[3-[(2S)-2-[[6-Oxo-5-(trifluoromethyl)-1,6-dihydropyridazin-4-yl]amino]-2-(pyridin-4-yl)ethoxy]propanoyl]piperazin-1-yl)pyridine-3-carbonitrile] | > 7.00
N#Cc1ccc(N2CCN(C(=O)CCO[C@H]3CC[C@H]3Nc3cn[nH]c(=O)c3C(F)(F)F)CC2)nc1 [Example 541, 6-(4-[3-[(1S,2R)-2-[[6-Oxo-5-(trifluoromethyl)-1,6-dihydropyridazin-4-yl]amino]cyclobutoxy]propanoyl]piperazin-1-yl)pyridine-3-carbonitrile] | > 7.00
O=c1[nH]ncc(N2Cc3ccc(O)cc3C2)c1C(F)(F)F [Example 219, 5-(5-Hydroxyisoindolin-2-yl)-4-(trifluoromethyl)pyridazin-3(2H)-one] | > 7.00
O=c1[nH]ncc(N2Cc3cccc(OCCN4CCOCC4)c3C2)c1Cl [Example 240, 4-Chloro-5-(4-(2-morpholinoethoxy)isoindolin-2-yl)pyridazin-3(2H)-one] | 6.00 to 7.00

Further lines, results first:

pIC50 | SMILES
> 7.00 | N#Cc1ccc(N2CCN(C(=O)/C=C/COC[C@@H]3c4ccccc4CN3c3cn[nH]c(=O)c3C(F)(F)F)CC2)nc1 [Example 79 Isomer C, 6-[4-[(2E)-4-[[(1S)-2-[6-oxo-5-(trifluoromethyl)-1,6-dihydropyridazin-4-yl]-2,3-dihydro-1H-isoindol-1-yl]methoxy]but-2-enoyl]piperazin-1-yl]pyridine-3-carbonitrile]
6.00 to 7.00 | O=C(COC[C@@H]1CCCN1c1cn[nH]c(=O)c1C(F)(F)F)NC1CCC(Oc2ccccn2)CC1 (stereo partly drawn) [Example 83, 2-[[(2S)-1-[6-oxo-5-(trifluoromethyl)-1,6-dihydropyridazin-4-yl]pyrrolidin-2-yl]methoxy]-N-[4-(pyridin-2-yloxy)cyclohexyl]acetamide]
> 7.00 | N#Cc1ccc(N2CCN(C(=O)CCCOCC3c4ncccc4CN3c3cn[nH]c(=O)c3C(F)(F)F)CC2)nc1 (centres unmarked) [Example 411, 6-(4-(4-((6-(6-Oxo-5-(trifluoromethyl)-1,6-dihydropyridazin-4-yl)-6,7-dihydro-5H-pyrrolo[3,4-b]pyridin-7-yl)methoxy)butanoyl)piperazin-1-yl)nicotinonitrile]
> 7.00 | O=C(CCOCCNc1cn[nH]c(=O)c1C(F)(F)F)N1CCN(c2ncc(Cl)cn2)CC1 [Example 503, 5-[(2-[3-[4-(5-Chloropyrimidin-2-yl)piperazin-1-yl]-3-oxopropoxy]ethyl)amino]-4-(trifluoromethyl)-2,3-dihydropyridazin-3-one]
> 7.00 | O=C(CCOC[C@@H]1CCCN1c1cn[nH]c(=O)c1C(F)(F)F)N1CCN(c2ncc(Cl)cn2)CC1 [Example 482, (S)-5-(2-((3-(4-(5-Chloropyrimidin-2-yl)piperazin-1-yl)-3-oxopropoxy)methyl)pyrrolidin-1-yl)-4-(trifluoromethyl)pyridazin-3(2H)-one]
> 7.00 | CC(=O)N1CCN(CCOc2cccc3c2CN(c2cn[nH]c(=O)c2C(F)(F)F)C3)CC1 [Example 228, 5-(4-(2-(4-Acetylpiperazin-1-yl)ethoxy)isoindolin-2-yl)-4-(trifluoromethyl)pyridazin-3(2H)-one]
> 7.00 | CN(CCC(=O)N1CCN(c2ccc(C#N)cn2)CC1)C[C@@H]1CCCN1c1cn[nH]c(=O)c1C(F)(F)F [Example 136, (S)-6-(4-(3-(methyl((1-(6-oxo-5-(trifluoromethyl)-1,6-dihydropyridazin-4-yl)pyrrolidin-2-yl)methyl)amino)propanoyl)piperazin-1-yl)nicotinonitrile]
> 7.00 | N#Cc1ccc(N2CCN(C(=O)CCOC[C@@H](Nc3cn[nH]c(=O)c3C(F)(F)F)c3ccccc3)CC2)nc1 [Example 514B, 6-(4-[3-[(2S)-2-[[6-Oxo-5-(trifluoromethyl)-1,6-dihydropyridazin-4-yl]amino]-2-phenylethoxy]propanoyl]piperazin-1-yl)pyridine-3-carbonitrile]
> 7.00 | N#Cc1ccc(N2CCN(C(=O)C#CCOC[C@@H]3CCCN3c3cn[nH]c(=O)c3C(F)(F)F)CC2)nc1 [Example 119, 6-[4-(4-[[(2S)-1-[6-oxo-5-(trifluoromethyl)-1,6-dihydropyridazin-4-yl]pyrrolidin-2-yl]methoxy]but-2-ynoyl)piperazin-1-yl]pyridine-3-carbonitrile]
≤ 6.00 | O=C(CCNC[C@H]1c2ccccc2CN1c1cn[nH]c(=O)c1C(F)(F)F)N1CCN(c2ncc(Cl)cn2)CC1 [Example 628, (R)-5-(1-(((3-(4-(5-Chloropyrimidin-2-yl)piperazin-1-yl)-3-oxopropyl)amino)methyl)isoindolin-2-yl)-4-(trifluoromethyl)pyridazin-3(2H)-one]
> 7.00 | N#Cc1cnc(N2CCN(C(=O)c3cccc(OC[C@@H]4CCCN4c4cn[nH]c(=O)c4C(F)(F)F)c3)CC2)cn1 [Example 443, (S)-5-(4-(3-((1-(6-Oxo-5-(trifluoromethyl)-1,6-dihydropyridazin-4-yl)pyrrolidin-2-yl)methoxy)benzoyl)piperazin-1-yl)pyrazine-2-carbonitrile]
> 7.00 | N#Cc1ccc(N2CCN(C(=O)CCOC[C@H](CN3CCOCC3)Oc3cn[nH]c(=O)c3C(F)(F)F)CC2)nc1 [Example 663, (S)-6-(4-(3-(3-Morpholino-2-((6-oxo-5-(trifluoromethyl)-1,6-dihydropyridazin-4-yl)oxy)propoxy)propanoyl)piperazin-1-yl)nicotinonitrile]
> 7.00 | O=c1[nH]ncc(N2Cc3ccc(OCc4cccnc4)nc3C2)c1C(F)(F)F [Example 313, 5-(2-(Pyridin-3-ylmethoxy)-5,7-dihydro-6H-pyrrolo[3,4-b]pyridin-6-yl)-4-(trifluoromethyl)pyridazin-3(2H)-one]
